# Data reported in ChEMBL document CHEMBL1142629, “New lipids from the tunicate Cystodytes cf. dellechiajei, as PLA2 inhibitors” (J Nat Prod, 2000).
# Test system: Crotalus adamanteus
# Assay: Inhibition of Crotalus adamanteus venom PLA2
smiles,measurement,value
CCCCCCCCCCCCCCCCCCCC[C@@H](O)C(=O)N[C@@H](CO)[C@H](O)[C@H](O)CCCCCCCCCC(C)C,ED50,100 µg/mL
